Measurements reported in ChEMBL document CHEMBL5465560, “Selectivity Literature for EUbOPEN Chemogenomic Library” (2024).
One block for each compound: values may come before it.

Tests used:
[1] = biological target: Mitogen-activated protein kinase 3 (Homo sapiens, UniProt P27361); conditions: at 10 µM
[2] = biological target: T1, Ephrin type-B receptor 3 (Homo sapiens) (UniProt P54753); assay: Selectivity interaction (KinomeScan (DiscoverX)) EUB0000655a EPHB3; conditions: at 10 µM
T1 sequence (whole entry): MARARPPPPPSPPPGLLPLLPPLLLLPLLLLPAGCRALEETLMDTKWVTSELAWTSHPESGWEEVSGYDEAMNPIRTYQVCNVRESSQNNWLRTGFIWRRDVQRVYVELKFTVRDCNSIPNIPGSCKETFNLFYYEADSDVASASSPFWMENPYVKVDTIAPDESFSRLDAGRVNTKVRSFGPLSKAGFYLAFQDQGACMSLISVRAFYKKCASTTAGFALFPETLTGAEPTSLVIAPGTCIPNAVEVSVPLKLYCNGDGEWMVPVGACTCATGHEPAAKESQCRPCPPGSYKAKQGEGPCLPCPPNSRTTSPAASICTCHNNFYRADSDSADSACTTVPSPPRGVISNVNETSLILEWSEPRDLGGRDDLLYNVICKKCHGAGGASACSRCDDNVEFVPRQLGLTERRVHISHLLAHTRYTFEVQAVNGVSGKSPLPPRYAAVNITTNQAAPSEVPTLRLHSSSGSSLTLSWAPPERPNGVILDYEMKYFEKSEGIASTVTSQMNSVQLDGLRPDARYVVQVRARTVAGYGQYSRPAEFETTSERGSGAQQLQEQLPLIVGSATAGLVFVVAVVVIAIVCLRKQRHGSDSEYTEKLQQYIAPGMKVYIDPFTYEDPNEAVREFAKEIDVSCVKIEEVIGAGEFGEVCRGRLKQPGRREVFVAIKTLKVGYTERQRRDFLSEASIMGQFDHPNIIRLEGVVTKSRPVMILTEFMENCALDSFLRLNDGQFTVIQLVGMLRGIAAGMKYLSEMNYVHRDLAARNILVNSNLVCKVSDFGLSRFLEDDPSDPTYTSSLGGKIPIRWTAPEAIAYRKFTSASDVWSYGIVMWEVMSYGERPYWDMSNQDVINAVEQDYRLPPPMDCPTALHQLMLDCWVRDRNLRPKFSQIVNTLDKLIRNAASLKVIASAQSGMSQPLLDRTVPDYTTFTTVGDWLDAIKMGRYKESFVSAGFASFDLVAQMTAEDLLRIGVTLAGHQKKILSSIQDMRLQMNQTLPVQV

[3] = biological target: T2, Mitogen-activated protein kinase kinase kinase 5 (Homo sapiens) (UniProt Q99683); assay: Selectivity interaction (KinomeScan (DiscoverX)) EUB0001619a MAP3K5; conditions: at 1 µM
T2 sequence (whole entry): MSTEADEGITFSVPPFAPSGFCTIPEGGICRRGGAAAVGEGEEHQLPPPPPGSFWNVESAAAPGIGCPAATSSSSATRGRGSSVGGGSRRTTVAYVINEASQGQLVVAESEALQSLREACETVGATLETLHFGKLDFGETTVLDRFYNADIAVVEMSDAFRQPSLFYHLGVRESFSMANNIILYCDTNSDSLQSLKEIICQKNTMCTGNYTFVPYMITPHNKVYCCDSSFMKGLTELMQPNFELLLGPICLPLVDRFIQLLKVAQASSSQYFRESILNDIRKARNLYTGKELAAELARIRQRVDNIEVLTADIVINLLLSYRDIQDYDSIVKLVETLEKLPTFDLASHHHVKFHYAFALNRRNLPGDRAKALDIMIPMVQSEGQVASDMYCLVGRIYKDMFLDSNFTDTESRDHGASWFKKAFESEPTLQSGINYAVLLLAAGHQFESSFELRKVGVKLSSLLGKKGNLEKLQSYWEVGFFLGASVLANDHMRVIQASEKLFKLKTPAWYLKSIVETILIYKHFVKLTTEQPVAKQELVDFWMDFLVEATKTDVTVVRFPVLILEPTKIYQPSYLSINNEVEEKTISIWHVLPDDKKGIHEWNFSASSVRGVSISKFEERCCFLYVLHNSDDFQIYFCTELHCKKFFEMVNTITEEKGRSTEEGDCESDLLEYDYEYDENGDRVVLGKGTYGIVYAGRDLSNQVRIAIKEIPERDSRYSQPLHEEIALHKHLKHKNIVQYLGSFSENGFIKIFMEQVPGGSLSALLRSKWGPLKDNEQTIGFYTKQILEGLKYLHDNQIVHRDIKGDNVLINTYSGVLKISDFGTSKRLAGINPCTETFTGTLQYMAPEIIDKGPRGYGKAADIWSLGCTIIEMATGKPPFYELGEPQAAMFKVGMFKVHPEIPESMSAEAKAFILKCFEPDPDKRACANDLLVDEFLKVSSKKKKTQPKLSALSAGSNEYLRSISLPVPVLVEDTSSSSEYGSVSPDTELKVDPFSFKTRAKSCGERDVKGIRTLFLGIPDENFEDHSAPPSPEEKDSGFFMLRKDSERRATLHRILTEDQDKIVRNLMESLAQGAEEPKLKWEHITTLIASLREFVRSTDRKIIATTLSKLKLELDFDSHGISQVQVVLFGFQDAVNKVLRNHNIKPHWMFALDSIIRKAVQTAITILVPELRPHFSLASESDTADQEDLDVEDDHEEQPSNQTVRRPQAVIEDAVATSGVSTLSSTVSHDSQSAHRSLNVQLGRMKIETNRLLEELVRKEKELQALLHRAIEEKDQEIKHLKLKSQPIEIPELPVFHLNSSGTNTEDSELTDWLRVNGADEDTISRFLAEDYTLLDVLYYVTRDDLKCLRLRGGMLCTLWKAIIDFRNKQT

[4] = biological target: T3, Aurora kinase C (Homo sapiens) (UniProt Q9UQB9); conditions: at 10 µM
T3 sequence (whole entry): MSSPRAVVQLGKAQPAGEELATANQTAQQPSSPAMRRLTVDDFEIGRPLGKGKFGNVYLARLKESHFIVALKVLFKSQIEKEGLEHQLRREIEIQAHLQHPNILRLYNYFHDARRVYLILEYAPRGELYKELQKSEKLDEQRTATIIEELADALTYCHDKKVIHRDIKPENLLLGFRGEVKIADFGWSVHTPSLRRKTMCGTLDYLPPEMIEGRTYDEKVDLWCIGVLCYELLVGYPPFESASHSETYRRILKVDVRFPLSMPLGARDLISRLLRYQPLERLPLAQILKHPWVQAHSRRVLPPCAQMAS

[5] = biological target: Phosphatidylinositol 3-kinase catalytic subunit type 3 (Homo sapiens, UniProt Q8NEB9); assay: Selectivity interaction (ActivX KiNativ screen (kinase selectivity in THP-1 cell lysates)) EUB0000639a PIK3C3; type: subcellular; conditions: lysate, at 0.01 µM
Phosphatidylinositol 3-kinase catalytic subunit type 3, sequence (Q8NEB9 whole entry): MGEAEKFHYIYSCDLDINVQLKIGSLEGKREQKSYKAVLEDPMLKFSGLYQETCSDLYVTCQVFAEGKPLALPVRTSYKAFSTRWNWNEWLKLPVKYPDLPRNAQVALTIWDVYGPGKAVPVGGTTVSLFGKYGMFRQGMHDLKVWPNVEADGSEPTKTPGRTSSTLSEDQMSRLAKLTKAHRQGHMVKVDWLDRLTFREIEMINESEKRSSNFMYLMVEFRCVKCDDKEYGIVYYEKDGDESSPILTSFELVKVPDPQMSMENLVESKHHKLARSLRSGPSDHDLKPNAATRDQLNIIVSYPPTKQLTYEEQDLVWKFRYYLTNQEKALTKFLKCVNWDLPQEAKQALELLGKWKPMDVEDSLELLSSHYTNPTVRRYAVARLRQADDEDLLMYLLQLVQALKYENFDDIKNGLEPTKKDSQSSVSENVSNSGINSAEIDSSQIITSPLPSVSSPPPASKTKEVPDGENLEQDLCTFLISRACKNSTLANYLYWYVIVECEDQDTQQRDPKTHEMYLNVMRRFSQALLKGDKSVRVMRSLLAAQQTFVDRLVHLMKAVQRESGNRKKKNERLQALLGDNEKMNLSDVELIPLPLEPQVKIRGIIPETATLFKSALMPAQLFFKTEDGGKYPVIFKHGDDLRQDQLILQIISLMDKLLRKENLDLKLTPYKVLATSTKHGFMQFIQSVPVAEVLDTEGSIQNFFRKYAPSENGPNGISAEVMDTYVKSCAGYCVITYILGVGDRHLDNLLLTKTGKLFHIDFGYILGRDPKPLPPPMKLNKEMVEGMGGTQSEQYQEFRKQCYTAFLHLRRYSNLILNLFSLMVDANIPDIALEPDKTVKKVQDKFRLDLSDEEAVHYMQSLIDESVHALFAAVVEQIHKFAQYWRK

Mitogen-activated protein kinase 3, sequence (P27361 whole entry): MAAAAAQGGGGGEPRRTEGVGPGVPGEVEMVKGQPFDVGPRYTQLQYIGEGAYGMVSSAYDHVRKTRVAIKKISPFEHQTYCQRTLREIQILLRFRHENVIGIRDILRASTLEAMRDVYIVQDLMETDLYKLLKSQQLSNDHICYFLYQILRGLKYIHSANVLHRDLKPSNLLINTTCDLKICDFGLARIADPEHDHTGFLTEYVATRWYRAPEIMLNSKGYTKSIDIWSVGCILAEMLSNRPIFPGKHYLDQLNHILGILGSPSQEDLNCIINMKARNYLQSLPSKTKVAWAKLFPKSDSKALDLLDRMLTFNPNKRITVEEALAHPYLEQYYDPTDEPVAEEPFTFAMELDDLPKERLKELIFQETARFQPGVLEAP

% of control [1]: 100%
SMILES: CCN(CC)CCCCNc1ncc2cc(-c3cc(OC)cc(OC)c3)c(NC(=O)NC(C)(C)C)nc2n1

SMILES: CN(C)CCOc1ccc(-c2nc(-c3ccncc3)c(-c3ccc4c(c3)CC/C4=N\O)[nH]2)cc1
% of control [2]: 100%

SMILES: N#Cc1cccc(-c2c[nH]c3ncnc(N4CCOCC4)c23)c1
% of control [3]: 26%

SMILES: Cc1cc([C@@H](C)Nc2ccccc2C(=O)O)c2nc(N3CCOCC3)cc(=O)n2c1 [AZD-6482]
% of control [4]: 93%

% of inhibition [5]: -21%
SMILES: CC[C@@H]1[C@H](F)C(=O)N[C@@H]1COc1nccc2cc(C(N)=O)c(OC)cc12 [ZIMLOVISERTIB]
